# In article PMC8165439, “Chymase Dependent Pathway of Angiotensin II Generation and Rapeseed Derived Peptides for Antihypertensive Treatment of Spontaneously Hypertensive Rats” (Frontiers in Pharmacology, 2021):
# Entries after “also recorded” stand apart in the source; their conditions may differ.
# Tests used:
# [1] = test system: spontaneously hypertensive rats (SHR); assay: Glomerulosclerosis index (GSI) after chronic treatment; format: in vivo, rat; conditions: after 14 days daily iv CH 2, RIY 7.5, VWIS 12.5 mg/kg/day, mean ± SEM, n = 5
# Description: (§1) After the chronic experiment rats were anesthetized with sodium thiopental (100 mg/kg, ip, Sandoz GmbH, Kundl, Austria) and the heart, kidney and tibia were harvested for morphologic analysis. Additionally, left ventricular hypertrophy was assessed: the hearts were immediately harvested, dried with filter paper, and weighed. Then the left ventricle (LV) was carefully excised and weighed again. Left ventricular hypertrophy was assessed based on the ratio of LV mass to tibia length (LV/tibia).
# The kidneys were fixed in 4% buffered formalin, embedded in paraffin and stained with hematoxylin/eosin for morphology evaluation. Glomerulosclerosis/hyalinosis index (GSI) was defined as segmental solidification of the glomerular capillary tuft, segmental collapse, obliteration of capillary lumen and accumulation of hyaline. Fifty glomeruli per section were randomly selected and evaluated using semi-quantitative scoring method as described in detail previously ([Maric et al., 2004]; [Gawrys et al., 2018]). Blind group allocation of the investigators was used.
# [2] = test system: spontaneously hypertensive rats (SHR); assay: Left ventricular hypertrophy (LV/tibia) after chronic treatment; format: in vivo, rat; conditions: after 14 days daily iv CH 2, RIY 7.5, VWIS 12.5 mg/kg/day, mean ± SEM, n = 5
# Description: as §1
# ACE = conditions: ref Petrie et al., 2001; cited from earlier work
# [3] = test system: spontaneously hypertensive rats (SHR); assay: Chronic iv treatment, systolic blood pressure by telemetry; format: in vivo, rat
# From the text: Implantation of the telemetry transmitters for BP measurement: Seven days before the start of the chronic experiment all rats were implanted with telemetry probes for blood pressure monitoring (Data Science International, St. Paul, MN, United States). The transmitters (TA11PA-C10 dedicated for young animals or TA11PA-C40 for adult rats, Data Science International, St. Paul, MN, United States), were implanted under aseptic conditions, under sodium pentobarbital anesthesia (Sodium Pentobarbital, dose: 50 mg/kg ip, Biowet, Pulawy, Poland). The transmitter’s cannula was implanted into the aorta and transmitter’s body was placed inside the peritoneal cavity and fixed to the abdominal muscle wall. Metacam (0.4 mg/kg BW, Boehringer, Ingelheim, Germany) and Baytril (10 mg/kg BW, Bayer, Leverkusen, Germany) were used as post-operative analgesia and to prevent infection, respectively.
# Implantation of cannulas for intravenous administration of selected substances: Four days before the start of the chronic experiment, the femoral vein was cannulated for chronic administration of the substances (Micro-Renathane MRE033, BIOSEB-In Vivo Research Instruments, United States/Canada), and the femoral artery was cannulated for blood sampling (Micro-Renathane Tubing MRE-025 and MRE033, BIOSEB-In Vivo Research Instruments, United States/Canada, respectively in young and adult rats). Both cannulas were filled with 4% Citra-Lock solution (Dirinco B.V, Ketelmeer 1, 5347 JX Oss, Netherlands) to prevent blood clotting and inflammation. After the surgery the post-operative treatment was applied as that for telemetric probe implantation.
# Systolic and diastolic blood pressure (SBP and DBP, respectively) and heart rate (HR) were measured in conscious unrestrained rats by telemetry technique, once a week for 24 h. […] The diuresis, weight of feces, food and water intake were measured; urine and blood samples were collected on day 0, 7th and 14th, and were centrifuged at 1200 g (blood for 15 min and urine for 5 min), then the samples were stored at –80°C until analysis. […]
# [4] = test system: spontaneously hypertensive rats (SHR); assay: Metabolic parameters in metabolic cages during chronic treatment; format: in vivo, rat; conditions: mean ± SEM
# Description: Systolic and diastolic blood pressure (SBP and DBP, respectively) and heart rate (HR) were measured in conscious unrestrained rats by telemetry technique, once a week for 24 h. 24 hour observations in metabolic cages (Tecniplast S. p.A. Buguggiate, Italy) were performed weekly. The diuresis, weight of feces, food and water intake were measured; urine and blood samples were collected on day 0, 7th and 14th, and were centrifuged at 1200 g (blood for 15 min and urine for 5 min), then the samples were stored at –80°C until analysis.
# On day 0 all animals received saline (0.9% NaCl) and then, for 14 consecutive days, the substance tested. Chymostatin (CH, 2 mg/kg/day) was dissolved in DMSO and then diluted with PBS (final concentration of DMSO was 0.15%). Peptides RIY (7.5 mg/kg/day) and VWIS (12.5 mg/kg/day) were dissolved in saline (0.9% NaCl, S). The substances were administered through the femoral vein during 10 min in the volume of 0.5 ml to young SHR (infusion rate: 3 ml/h) and 1 ml to adult rats (infusion rate: 6 ml/h). Control rats received solvents (either DMSO or saline) in the same volume.
# Urine volume was determined by gravimetric method. Sodium and potassium concentration in urine and plasma were measured by flame photometry (PFP7/C, Jenway Ltd, Stone, United Kingdom). Urine and plasma osmolality were measured by freezing point depression (Osmomat® 030 M, Gonotec, Berlin, Germany). These parameters were used to determine the excretion rates of total solutes (UosmV), sodium (UNaV) and potassium (UKV). Commercially available ELISA kits were used to measure nitric oxide metabolites (NOx, SunRed, Shanghai) and albumin (Albumin, ICL, Portland) concentration in urine. Excretion rate of NOx (UNOxV) and albumin (UAE) were calculated.
# [5] = adult SHR (SHR-16), day 0 (baseline)
# [6] = adult SHR (SHR-16), day 7 of daily iv treatment
# [7] = adult SHR (SHR-16), day 14 of daily iv treatment
# [8] = young SHR (SHR-6), day 0 (baseline)
# [9] = young SHR (SHR-6), day 7 of daily iv treatment
# [10] = young SHR (SHR-6), day 14 of daily iv treatment
structure (smiles),measurement,setting,value
"CC(C)C[C@H](NC(=O)[C@@H](NC(=O)N[C@@H](Cc1ccccc1)C(=O)O)[C@@H]1CCN=C(N)N1)C(=O)N[C@H](C=O)Cc1ccccc1 [CH, chymostatin]",glomerulosclerosis index (GSI),[1]; adult SHR,0.50 ± 0.07
same,glomerulosclerosis index (GSI),[1]; young SHR,0.51 ± 0.07
same,left ventricular hypertrophy (LV/tibia),[2]; adult SHR,20.7 ± 2.6 mg/mm
same,left ventricular hypertrophy (LV/tibia),[2]; young SHR,16.7 ± 0.9 mg/mm
same,block of ACE by chymostatin,ACE,does not block ACE
same,effect on systolic blood pressure (SBP) in adult SHR,"[3]; adult SHR (16 weeks old), daily iv for 14 days, CH 2, RIY 7.5, VWIS 12.5 mg/kg/day",no sustained decrease in arterial blood pressure; also recorded: significant increase in SBP
same,period of transient BP reduction post-infusion,"[3]; adult SHR, chronic intravenous infusion of chymostatin 2 mg/kg/day",≤ 7 h
same,effect on blood pressure (SBP) in young animals,"[3]; young SHR (6 weeks old), daily iv for 14 days, CH 2, RIY 7.5, VWIS 12.5 mg/kg/day",Neither of the inhibitors applied (chymostatin and the both rapeseed-derived peptides) affected blood pressure
same,Body weight,"[4]; adult SHR (SHR-16), day 0 (baseline), CH n=8, RIY n=5-6, VWIS n=5-6",271 ± 16 g
same,Diuresis,[4]; [5],6.9 ± 1.9 µL/min
same,Faeces,[4]; [5],9±1 g/24 h
same,Food intake,[4]; [5],21±1 g/24 h
same,Water intake,[4]; [5],29±3 g/24 h
same,Body weight,"[4]; adult SHR (SHR-16), day 7 of daily iv CH 2, RIY 7.5, VWIS 12.5 mg/kg/day",285 ± 17 g
same,Diuresis,[4]; [6],7.4 ± 2.1 µL/min
same,Faeces,[4]; [6],8±1 g/24 h
same,Food intake,[4]; [6],17±1 g/24 h
same,Water intake,[4]; [6],29±3 g/24 h
same,Body weight,"[4]; adult SHR (SHR-16), day 14 of daily iv CH 2, RIY 7.5, VWIS 12.5 mg/kg/day",298 ± 19 g
same,Diuresis,[4]; [7],8.1 ± 2.9 µL/min
same,Faeces,[4]; [7],9±1 g/24 h
same,Food intake,[4]; [7],20±2 g/24 h
same,Water intake,[4]; [7],29±4 g/24 h
same,Body weight,"[4]; young SHR (SHR-6), day 0 (baseline), CH n=8-10, RIY n=5, VWIS n=5-6",131 ± 10 g
same,Diuresis,[4]; [8],6.1 ± 0.5 µL/min
same,Faeces,[4]; [8],7±1 g/24 h
same,Food intake,[4]; [8],15±1 g/24 h
same,Water intake,[4]; [8],23±2 g/24 h
same,Body weight,"[4]; young SHR (SHR-6), day 7 of daily iv CH 2, RIY 7.5, VWIS 12.5 mg/kg/day",159 ± 5 g
same,Diuresis,[4]; [9],9.9 ± 1.4 µL/min
same,Faeces,[4]; [9],11±1 g/24 h
same,Food intake,[4]; [9],18±2 g/24 h
same,Water intake,[4]; [9],29±5 g/24 h
same,Body weight,"[4]; young SHR (SHR-6), day 14 of daily iv CH 2, RIY 7.5, VWIS 12.5 mg/kg/day",196 ± 4 g
same,Diuresis,[4]; [10],10.0 ± 0.9 µL/min
same,Faeces,[4]; [10],12±1 g/24 h
same,Food intake,[4]; [10],20±2 g/24 h
same,Water intake,[4]; [10],32±3 g/24 h
